Target: Adenosylhomocysteinase (Bos taurus)
Assay: Binding affinity against S-adenosyl-homocysteine hydrolase

| Structure (SMILES) | Ki |
| --- | --- |
| Nc1ncnc2c1nnn2C1CC(CO)C(O)C1O (configuration not stated) [3-(7-amino-3H-[1,2,3]triazolo[4,5-d]pyrimidin-3-yl)-5-hydroxymethyl-1,2-cyclopentanediol] | 22 µM |
| Nc1nccc2c1ncn2[C@@H]1C[C@H](CO)[C@@H](O)[C@H]1O [3-DEAZAARISTEROMYCIN A] | 0.004 µM |

— BindingDB's records for doi:10.1021/jm00382a015 (1985)
